Data set [1] concerns human LECs-CCCs freshly removed from cataract operation. As to the kind of experiment: In situ treatment of LECs attached to capsulorhexis lens capsule (LECs-CCC). The format is cell-based. The conditions noted are these: 200 or 300 μm NEM in PBS. How it is done:
The in situ effects of a treatment solution comprising dihydrochlorothiazide (DHCT) (a cotransport interference agent from the group of the thiazide and related diuretics) and hyperosmotic NaCl on human LECs is examined. The treatment is tested on LECs that are still attached to a continuous curvilinear capsulorhexis lens capsule (LECs-CCC) which are freshly removed from a human cataract operation.
The LECs-CCCs are obtained from a cataract operation and immediately put in freshly prepared Eagle's Minimum Essential Medium (MEM) supplemented with 2 mM glutamine, 25 mmol/L Hepes (pH 7.4) without foetal cow serum (FCS) and is transferred to the laboratory for evaluation. Viable LECs are identified by staining the LECs-CCCs for five minutes with 0.2% Trypan Blue. The sheets containing more than 70% viable LECs are used to assess the efficacy of the treatment. […]
In the first step, a hyperosmotic solution of NaCl is prepared by making a stock solution of 2 M NaCl by adding 58.44 g NaCl (supplied by Sigma Chemical Co., U.S.) to 500 ml dH2O. The desired concentration of osmotic NaCl is prepared by diluting the 2M stock solution with dH2O. For example, to make a hyperosmotic solution of 170 mM NaCl, the 2M NaCl stock solution was diluted with dH2O at a ratio of […]. To make a hyperosmotic solution of 200 mM NaCl, the 2M NaCl stock solution is diluted with dH2O at a ratio of 1 to 9. Final osmolarities (mOsm/kg/H2O) are determined by a freezing point depression method using cryoscopic osmometry.
In the second step, DHCT stock solution is made by adding 25 mg DHCT to 1 ml dH2O. […]
The treatment is applied by exposing the LECs-CCCs for five minutes in a small petri dish containing the treatment solution. The treatment solution is removed after five minutes exposure by a syringe and then the fresh PBS is added in the petri dish to wash away the treatment solution. The LECs-CCCs are washed three times. The changes of the LECS are monitored under a microscope. Microscope photographs are taken at 0, 2 and 5 minutes and after wash.

In data set [2] the test system is in vivo rabbit eyes. As to the kind of experiment: In vivo prevention of PCO after cataract operation in rabbit eyes. The conditions noted are these: IOLs coated with 300 μm NEM in PBS, dried overnight, inserted into the lens capsular bag.
Data set [3] has as its system in vivo rabbit eyes. The description is as above. The following applies: 200 or 300 μm NEM in PBS or 170 mM monnitol. The protocol:
The experimental group includes sixteen rabbit eyes and the control group includes four rabbit eyes. A sham cataract operation is performed on the control animals. The therapy is introduced to the others.
The pupil of each rabbit eye is preoperatively dilated with topical G Phenylephrine 10% (Alcon Labs., Inc., China) and G Cyclopentolate 1% (Bausch & Lomb Pharm., Inc., USA) three times in one hour. The rabbits are anesthetized with ketamine hydrochloride (5 mg kg-1) and xylazine hydrochloride (2 mg kg-1) and placed on an operating table. A topical anesthetic (Dieaine hydrochloride 1%) is used every five minutes on two occasions. A wire lid speculum is placed to hold the eyelids open.
A 3.2 mm scleral tunnel incision into the eye is formed at the temporal limbus. The anterior chamber is maintained with viscoelastic substances and a 4-5 mm diameter continuous curvilinear capsularhexis (CCC) is made on the anterior surface of the lens to open its bag. The treatment solution is first introduced in the LECs by hydrodissection. This ensures that the treatment fluid immediately reaches under the entire anterior capsule/LECs. This process allows for (i) separation of the lens cortex from the capsule and lens epithelium, making removal of the lens cortex easier at a later stage of the operation and (ii) the LECs to be exposed to the treatment for enough time (more than five minutes in total time).
The crystalline lens is then removed using phacoemulsification (Universal II, Alcon Labs., Inc., China). The remaining cortex is aspirated thoroughly and removed as completely as possible to expose the LECs. The lens capsular bag is then partially filed with viscoelastic material in order to maintain its shape. The viscoelastic material should not cover the LECs when the treatment solution is applied.
The treatment is spread over the inner surface of the anterior capsular bag (where the LECs attach). The anterior capsular is continuously filled by using a syringe with a bent needle. Care is taken not to over flow the bag. After the treatment solution covered the capsule bag, it is left for five minutes and then removed using a syringe.
In a few cases, IOLs are inserted. […] At the same time, the incision is enlarged to 6.0 mm and a posterior ocular lens (IOLs) (poly-methyl methacrylate, PMMA) with a 6.5 mm optic is prepared and placed into the capsular bag.
The wound is closed with or without suture.
At the completion of the surgical procedure, each rabbit eye receives subconjunctival dexamethasone (0.25 ml) and gentamicin (0.25 ml). Postoperatively, atropine sulphate 1% ophthalmic solution and neomycin sulphate-polymyxin sulphate-dexamethasone ophthalmic ointment are administered twice daily for three weeks.
The animals are evaluated for three weeks and ten weeks. […] All rabbits are evaluated by slitlamp and scored for ocular responses at 1 day and at 1, 2 and 3 weeks. (See FIG. 17, Table 1.) Three and ten weeks after surgery, the animals are anesthetized using a 2 ml intramuscular injection of 11:1 mixture of ketamine hydrochloride and xylazine 20 mg/ml and then killed with a 2 ml intravenous injection of sodium pentobarbital.
The eye globes are enucleated (some of them fixed in neutral buffered formalin 10% solution for 24 hours) and are bisected coronally just anterior to the equator. Gross examination is performed to assess. PCO development. Photographs are taken from behind (Miyake-Apple posterior photographic technique) by using a digital camera fitted to an operating microscope (Leica/Wild MZ-8, Vashaw Scientific, Inc.).
The extent and severity of PCO is scored (see FIG. 17, Table 1) according to methods reported in the literature. The lens capsules are then fixed and evaluated under a microscope (Olumpus, Optical Co. Ltd.) and photographed with a digital camera.

Data on 1 compound can be found in patent US7875270B2, “Treatment solution and method for preventing posterior capsular opacification by selectively inducing detachment and/or death of lens epithelial cells” (Abbott Medical Optics Inc., priority 2002, dated 2011).

Turning to `CCN1C(=O)C=CC1=O` [NEM, N-ethylmaleimide], in data set [1], the “LEC changes after five minutes of acute exposure” value was “almost no changes are observed”. For the same compound, in data set [1] (after treatment), the “LEC changes once put into PBS washing solution” value was “shrink and large gaps form between the cells. The shrunken cells then detach”. Moreover, the “anterior chamber (AC) reaction” value in the data set with in vivo rabbit eyes [2] is listed as “significantly reduces the AC reaction”. Besides, in the data set with in vivo rabbit eyes [3], the “LECs on the lens capsule bag under microscope” value is “no LECs on the lens capsule bag”. Besides, the “development of CPCO or PPCO” value with in vivo rabbit eyes [3] (3 and 10 weeks follow up) is listed as “no CPCO or PPCO develops”. In the data set with in vivo rabbit eyes [3] (solution introduced directly), the intraocular inflammatory reaction entry is “heavy intraocular inflammatory reaction in the early period and posterior synechiae”.
